Here are results for one molecule from patent US6399568B1, “Cyclic tetrapeptide derivatives and medicinal use thereof” (Japan Energy Corporation, priority 1997, dated 2002).

For test [1], the system named is mouse malignant melanoma B16 cell line. As to the kind of experiment: Cell proliferation inhibition (72 hours). The format is cell-based. The conditions noted are these: read-out: 50% proliferation inhibiting concentration B16 (nM) mean. An excerpt: (§1) In order to verify the action of the cyclic tetrapeptide derivative according to the present invention in inhibiting cell proliferation in cancerized cells, the action on the proliferation of the aforementioned B16/BL6 cells was investigated. The evaluation of cell proliferation rates was done utilizing a commercially available measuring kit, specifically, from Promega under the trade name CellTiter 96 Aqueous Non-Radioactive Proliferation Assay Kit. In the measuring kit, the amount of products through reduction of a reagent tetrazolium compound (3-(4,5-dimethylthiazol-2-yl)-5-(3-carboxymethoxyphenyl)-2-(4-sulfophenyl)-2H-tetrazolium, inner salt; MTS) by viable animal cells is determined by detecting spectrophotometrically the color generated from the products. Since the amount of products is proportional to the amount of viable cells, this kit is utilized to evaluate the amount of viable cells.
(§2) According to the procedure of Test Example 1, B16/BL6 cells are inoculated in a 96 well microplate and cultured for 24 hours. Then, 10 μl of a solution of the source solution of a compound to be tested which has been diluted to a predetermined amount per well is added. Thereafter, culture is continued for additional 48 hours and 20 μl of a reagent solution in the aforementioned CellTiter 96 Aqueous Non-Radioactive Proliferation Assay Kit is then added. After incubation is continued at 37° C. for 1 hour, the amount of color generation is measured as an absorbance at 490 n musing a microplate reader.
(§3) The amount of cell proliferation of a group to which a compound to be tested is added is expressed in a relative value as compared to the standard cell proliferation (100%) in a control group to which no compound to be tested is added. For each compound tested, the amounts of cell proliferation were measured at different concentrations of addition and the dependence of the quantitative cell proliferation on the concentration of addition was investigated. From the results, a concentration of addition at which the amount of cell proliferation was inhibited by 50% relative to the amount of cell proliferation in the control group without addition was determined.
(§4) The test method was in accordance with the above-mentioned procedure, except that the period of incubation after the addition of a compound was 72 hours.
(§5) As illustrative examples, results are shown for an evaluation using mouse malignant melanoma B16/BL6 and B16 cell lines; leukemia L1210 cell line, colon cancer Colon26 cell line, and liver cancer MH134 cell line as cancer cells. For the cell proliferation inhibiting action of each compound tested for these cancer cells, 50% proliferation inhibiting concentrations are shown in Table 4.

In a further test the test system is Colon 26. As to the kind of experiment: In vivo anti-cancer activity in mouse (solid tumor system). The note with it: measured day-14, estimated from diameters. On the procedure:
(§6) Three mouse cancers Colon26, Meth A and B16 were used to evaluate in vivo anti-cancer activity of the cyclic tetrapeptide compounds according to the present invention in a solid tumor system. The cancer cells were cultured in a conventional manner, suspended in PBS and intradermally transplanted into a mouse ventral portion (10^5). The mouse used was CDF1, Balb/c or BDF1 (male, 7 weeks in age) for Colon 26, Meth A or B16, respectively. On day-4, 7 and 10 for Colon 26, or on day-7, 10, 13 and 16 for Meth A and B16 (day-0 being the day of cancer transplantation), a given amount of solution containing a predetermined amount of a compound to be tested was administered into the tail vein (10, 3 and 1 mg/kg; 2 ml/kg). In this example, the solution for administration used was PBS suspension (as neutralized with NaOH). On day-14 for Colon26 and on day-21 for Meth A and B16, the size of tumor (shorter and longer diameters) was measured. The tumor weight was estimated from the value obtained by calculation from the equation: ½×longer diameter×shorter diameter^2. Anti-tumor effects were based on the estimated tumor weight used as a measure and a tumor weight was estimated for a control group to which an equal amount of a drug-free solution was added; % inhibition was determined on the basis of the difference between the estimated tumor weights for the treated and control groups.

The next test deals with Meth A. The description is as above. On the procedure: as §6
A further test deals with B16. The description is as above. The note with it: measured day-21, estimated from diameters. On the procedure:
as §6

Test [2] relates to liver cancer MH134 cell line. Briefly: Cell proliferation inhibition (72 hours). The format is cell-based, mouse. The note with it: read-out: 50% proliferation inhibiting concentration MH134 (nM) mean.
Excerpt: as §1, §2, §3, §4, §5

In test [3] the test system is colon cancer Colon26 cell line. Briefly: Cell proliferation inhibition (72 hours). The format is cell-based, mouse. The conditions noted are these: read-out: 50% proliferation inhibiting concentration Colon 26 (nM) mean.
Excerpt: as §1, §2, §3, §4, §5

The next test relates to leukemia L1210 cell line. As to the kind of experiment: Cell proliferation inhibition (72 hours). The format is cell-based, mouse. The conditions noted are these: read-out: 50% proliferation inhibiting concentration L1210 (nM) mean.
Excerpt: as §1, §2, §3, §4, §5

Test [4] deals with Mouse histone deacetylase. The format is biochemical. The conditions noted are these: enzyme from FM3A cells; [3H]acetyl histone; 37° C. 10 minutes. On the procedure:
In an enzyme system using a radio-labelled acetylated histone as a substrate, histone deacetylase enzyme inhibiting activity was evaluated. The basic conditions were in accordance with the method of Yoshida et al. (J. Biol. Chem., 265, 17174-17179, 1990).
Mouse histone deacetylase to be used was partially purified from FM3A cells. Cells were suspended in HDA buffer (15 mM potassium phosphate, 5% glycerol, 0.2 mM EDTA, pH 7.5), homogenized and centrifuged (35000×g, 10 min) to collect the nuclei which in turn were homogenized in the same buffer containing 1 M (NH4)2SO4. After ultrasonic disruption and centrifugation, the concentration of (NH4)2SO4 in the supernatant was increased to 3.5 M to precipitate deacetylase enzyme proteins. This precipitate was redissolved in HDA buffer, dialyzed against HDA buffer, applied to DEAE-cellulose column and eluted in NaCl gradient. Active fractions were used as a histone deacetylase enzyme solution.
As a substrate, [^3H]acetyl histone was used. In a culture solution of FM3A cells in the presence of 5 mM sodium n-butyrate, [^3H]acetate was added, followed by incubation for 30 minutes to radio-label the histone. The histone was prepared in a conventional manner and used as a substrate solution.
An assay was performed by adding a compound to be tested at a given concentration while using a no-addition control group, and by incubating the substrate solution and the enzyme solution at 37° C. for 10 minutes (reaction volume, 100 μl). The enzyme reaction was stopped by adding 10 μl of concentrated hydrochloric acid and the excised [^3H]acetate was extracted with ethyl acetate for radioactivity measurement. The inhibiting activity was expressed by a concentration at which the enzyme activity in the control group was inhibited by 50% (50% inhibiting concentration).

Structures are written as SMILES. Non-standard residues stand in square brackets, D forms with d. Residues, ends and D or L forms follow the SMILES beside them. *: point of attachment. Asu = N[C@@H](CCCCCC(=O)O)C(=O)O; NHOH = ON*

Take `CC[C@H](C)[C@@H]1NC(=O)[C@@H](Cc2ccc(OC)cc2)NC(=O)[C@H](CCCCCC(=O)NO)NC(=O)[C@H]2CCCN2C1=O` [HDA-31, cyclo(-L-Asu(NHOH)-D-Tyr(Me)-L-Ile-D-Pro-)] (cyclo([Asu](NHOH)[dY](Me)I[dP])): the IC50 in test [1] was found to be 44.2 nM; in test [2] it was 50.7 nM; in test [3], 33 nM; with leukemia L1210 cell line, 18.8 nM; in test [4] it was 2.08 nM. In addition, the “tumor weight” value is listed as 756 ± 25 mg in the test on Colon 26 (Colon 26, 1 mg/kg tail vein on day-4, 7 and 10); 677 ± 155 mg in the test with Colon 26 (Colon 26, 3 mg/kg tail vein on day-4, 7 and 10); 726 ± 123 mg with Colon 26 (Colon 26, 10 mg/kg tail vein on day-4, 7 and 10); 2100 ± 570 mg in the test on Meth A (1 mg/kg tail vein on day-7, 10, 13 and 16, measured day-21, estimated from diameters); 1230 ± 500 mg with Meth A (3 mg/kg tail vein on day-7, 10, 13 and 16, measured day-21, estimated from diameters); 1470 ± 500 mg with Meth A (10 mg/kg tail vein on day-7, 10, 13 and 16, measured day-21, estimated from diameters). Further, the “tumor weight” value with B16 (B16, 1 mg/kg tail vein on day-7, 10, 13 and 16) was 258 ± 184 mg; in the test with B16 (B16, 3 mg/kg tail vein on day-7, 10, 13 and 16) it was 280 ± 152 mg; with B16 (B16, 10 mg/kg tail vein on day-7, 10, 13 and 16) it was 120 ± 112 mg.
